What was measured:
[1] = biological target: T1, human H-PGDS (Homo sapiens, UniProt O60760); test: H-PGDS inhibitory activity (Prostaglandin D Synthase Inhibitor Screening Assay Kit); format: biochemical; conditions: at a concentration of 1 μmol/L; read-out: H-PGDS inhibitory rate
T1 construct: purchased Cayman Chemical 10006593
Protocol: The H-PGDS inhibitory activity of Compound (I) was calculated according to the following protocol attached to Prostaglandin D Synthase Inhibitor Screening Assay Kit (Cat. No. 10006595, Cayman Chemical, Ann Arbor, Mich., USA).
(§1) First, to a 96-well round-bottom plate (Cat. No. 3882-096, Asahi Techno Glass, Chiba), 60 μL/well of an enzyme assay buffer (0.1 mol/L Tris-HCl, pH 8.0), 10 μL/well of a human H-PGDS [Cat. No. 10006593 (human), Cayman Chemical, Ann Arbor, Mich., USA] at a final concentration of 0.125 μg/mL, 10 μL/well of reduced glutathione at a final concentration of 1 mmol/L, and 10 μL/well of Compound (I) diluted with the enzyme assay buffer were added and lightly mixed. The plate was allowed to stand at room temperature for 10 minutes, and then 10 μL/well of prostaglandin H2(PGH2) (Cat. No. 17020, Cayman Chemical) at a final concentration of 50 μmol/L was added thereto to start enzyme reaction. The reaction was allowed to proceed with mixing by a plate mixer for 1 minute. After the enzyme reaction, 10 μL/well of a 4 mg/mL FeCl2-HCl solution prepared by dissolving FeCl2 in 1 mol/L hydrochloric acid was added to stop the reaction and reduce PGH2 simultaneously. The enzyme reaction solution (100 μL/well) was transferred to a 96-well UV-Star half area plate (Cat. No. 675801, Greiner, Frickenhausen, Germany), and measured for absorbance at 232 nm using a microplate reader Power Wave (BioTek Instrument Inc., Winooski, Vt., USA).
The H-PGDS inhibitory activity (inhibitory rate) of Compound (I) was calculated by the following formula.
The H-PGDS inhibitory activity of Compound 133 was calculated according to the following protocol attached to Prostaglandin D Synthase Inhibitor Screening Assay Kit (Cat. No. 10006595, Cayman Chemical, Ann Arbor, Mich., USA).
as §1, with “133” for “(I)”
The H-PGDS inhibitory activity (inhibitory rate) of Compound 133 was calculated according to the method in Test Example 1.

[2] = biological target: T2, human lipocalin-prostaglandin D2 synthase (human lipocalin-PGDS) (Homo sapiens, UniProt P41222); test: Inhibition of human lipocalin-PGDS enzyme activity; format: biochemical; conditions: at a concentration of 10 μmol/L; read-out: inhibitory rate, human lipocalin-PGDS
T2 sequence (P41222 23-190): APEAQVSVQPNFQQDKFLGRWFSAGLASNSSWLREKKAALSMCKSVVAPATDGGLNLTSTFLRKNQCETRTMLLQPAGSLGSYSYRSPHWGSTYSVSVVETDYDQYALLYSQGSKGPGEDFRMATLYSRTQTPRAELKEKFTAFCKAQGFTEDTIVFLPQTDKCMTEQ

T1 sequence (O60760 whole entry): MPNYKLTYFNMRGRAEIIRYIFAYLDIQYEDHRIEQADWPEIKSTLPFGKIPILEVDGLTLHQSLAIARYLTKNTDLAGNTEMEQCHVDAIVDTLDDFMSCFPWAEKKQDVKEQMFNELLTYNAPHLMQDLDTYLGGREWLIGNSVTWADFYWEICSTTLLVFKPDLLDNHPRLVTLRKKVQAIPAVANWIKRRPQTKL

**Q.** With `O=C(O)c1cc(-c2ccco2)nc2ccc3nn(-c4ccccc4)nc3c12` [Compound 133, 7-(furan-2-yl)-2-phenyl-2H-[1,2,3]triazolo[4,5-f]quinoline-9-carboxylic acid] as the molecule, how does the inhibition at 1 µM [1] read?
**A.** 73%

**Q.** What about the inhibition at 10 µM [2] of the same molecule?
**A.** ≤ 20%

— US20120196854A1, “PHARMACEUTICAL COMPOSITION COMPRISING AROMATIC HETEROCYCLIC COMPOUND” (Kyowa Hakko Kirin Co., Ltd., priority 2009, published 2012)
